Counter-ions that a name gives are not always drawn.
Experiments:
[1] = increase in lipid peroxide level in the blood induced by carbon tetrachloride in SD rats (Example 3); type: in vivo, SD male rats; details: for Lipid Peroxides in serum / GPT level in serum / GOT level in serum: dose not given; for Lipid Peroxides in serum: control 7.10 ± 1.73, non-treated 3.40 ± 0.21; for GPT level in serum: control 3709 ± 406, non-treated 21 ± 2; for GOT level in serum: control 14689 ± 1577, non-treated 95 ± 5
Method: Using 7 week-old SD male rats, each group consisting of 6 rats, the effectiveness of beraprost by oral administration against the increase in the lipid peroxide level in the blood induced by carbon tetrachloride was tested. The sodium salt of beraprost was used as the test compound. 12.5% carbon tetrachloride solution in olive oil was intraperitoneally administered in a dose of 2 ml/kg to the rats which had been fasted for 24 hours. After the administration of the carbon tetrachloride solution, the rats were fasted for another 24 hours and then the levels of lipid peroxide, GOT and GPT in serum were measured. The test compound was administered one hour before (Test Group 1) or 6 hours after (Test Group 2) the administration of the carbon tetrachloride solution. As a control group, one group was treated in the same manner as described above except that the sodium salt of beraprost was not administered.

[2] = hepatic disorder induced by D-galactosamine in SD rats (Example 2); type: in vivo, SD male rats; details: oral
Method: Using 7 week-old SD male rats, the effectiveness of beraprost by oral administration against the hepatic disorder induced by D-galactosamine was tested. As the test compound, the sodium salt of beraprost was used. The test compound was administered in a dose of 0.3 mg/kg per each time at one hour before and 6 hours after the administration of D-galactosamine. D-galactosamine was subcutaneously administered in a dose of 1 g/kg. Forty eight hours after the administration of D-galactosamine, the GOT and glutamic acid-pyruvic acid transaminase (hereinafter referred to as "GPT") levels in serum, and the content of triglyceride in the livers were measured.
As a control group, one group was treated in the same manner as described above except that sodium salt of beraprost was not administered.

[3] = disorder caused by liver ischemia-recirculation in SD rats (Example 4); type: in vivo, SD male rats; details: oral, 30 minutes before ischemia; for GPT level in serum: two hours after recirculation, control 624
Method: Using 8-10 week-old SD male rats, the effectiveness of beraprost by oral administration against the disorder caused by liver ischemia-recirculationwas tested. The sodium salt of beraprost was used as the test compound. The test compound was administered 30 minutes before the induction of liver ischemia. Liver ischemia was induced by ventrotomy under anesthesia and closing the hepatic artery in the outer left leaf and the portal vein with clips. One hour after the clipping, the clips were removed to reopen the vessels. Two hours after recirculation, the GPT level in serum was measured to evaluate the degree of disorder.
As a control group, one group was treated in the same manner as described above except that distilled water was administered in place of sodium salt of beraprost.

[4] = hepatic disorder induced by carbon tetrachloride in SD rats, serum GOT (Example 1); type: in vivo, Sprague-Dawley male rats; details: 0.3 mg/kg; for GOT level in serum: 24 h after
Method: Using 7 week-old Sprague-Dawley (hereinafter referred to as "SD") male rats, the effectiveness of beraprost against hepatic disorder induced by carbon tetrachloride was tested employing two administration routes, that is, oral and intraperitoneal administrations. Each group consisted of 6 rats. The test compound was the sodium salt of beraprost. The test compound was administered to the rats. which had been fasted for 24 hours, One hour after beraprost administration, 12.5% carbon tetrachloride solution in olive oil was administered in a dose of 2 ml/kg. The carbon tetrachloride solution was intraperitoneally administered to the rats to which the test compound was orally administered. The carbon tetrachloride solution was orally administered to the rats to which the test compound was intraperitoneally administered. After the administration of the carbon tetrachloride solution, the rats were fasted for 24 hours, and the glutamic acid-[…] transaminase (hereinafter referred to as "GOT") level in serum was measured. As a control group, one group was treated in the same manner as described above except that the sodium salt of beraprost was not administered. The results are shown in […]

rats = assay: Acute Toxicity Test (Example 5); details: rat, in vivo
Method: (§1) Acute toxicity test was carried out using rats.
(§2) *Litchfield-Wilcoxon Method (see J. Pharmacol. Expl. Therap. Vol. 96, p.
(§3) The numbers in parentheses indicate 95% reliable limit.

[5] = Acute Toxicity Test (Example 5); set-up: species or system rats; details: rat, in vivo, 14 days, parentheses: 95% reliable limit, Litchfield-Wilcoxon Method
Method: as §1, §2, §3

[6] = Test Group 1: oral, one hour before carbon tetrachloride, 24 h after
[7] = Test Group 2: oral, 6 hours after carbon tetrachloride, measured 24 h after carbon tetrachloride
[8] = oral, one hour before or 6 hours after carbon tetrachloride
[9] = 0.3 mg/kg twice, vs control group

CC#CCC(C)[C@H](O)/C=C/[C@@H]1[C@H]2c3cccc(CCCC(=O)O)c3O[C@H]2C[C@H]1O (relative stereo) [sodium salt of beraprost]
Lipid Peroxides in serum [1, 6]: 2.44 ± 0.34 µM | GPT level in serum [1, 6]: 1285 ± 344 unit/l | GOT level in serum [1, 6]: 4428 ± 1649 unit/l | Lipid Peroxides in serum [1, 7]: 2.82 ± 0.52 µM | GPT level in serum [1, 7]: 1713 ± 258 unit/l | GOT level in serum [1, 7]: 7672 ± 1834 unit/l | Triglyceride content in the liver ([2]; 0.3 mg/kg one hour before and 6 hours after D-galactosamine, 48 h, control 42.4 ± 6.0, non-treated 14.1 ± 0.6): 12.4 ± 0.7 mg/g tissue | GPT level in serum ([2]; 0.3 mg/kg one hour before and 6 hours after D-galactosamine, 48 h, control 2552 ± 375, non-treated 79 ± 5): 1356 ± 187 unit/l | GOT level in serum ([2]; 0.3 mg/kg one hour before and 6 hours after D-galactosamine, 48 h, control 5641 ± 858, non-treated 154 ± 7): 3506 ± 377 unit/l | GPT level in serum ([3]; 0.03 mg/kg): 617 unit/l | GPT level in serum ([3]; 0.1 mg/kg): 540 unit/l | GPT level in serum ([3]; 0.3 mg/kg): 427 unit/l | decrease in GPT level in serum (in words) ([3]; 0.03-0.3 mg/kg): a decrease in GPT level in serum was observed | GOT level in serum ([4]; intraperitoneal, one hour before carbon tetrachloride (oral), control 11943 ± 1216): 1889 ± 506 unit/l | decrease in GOT (in words) ([4]; oral and intraperitoneal, vs control): significant decrease in GOT was observed | GOT level in serum ([4]; oral, one hour before carbon tetrachloride (intraperitoneal), control 15647 ± 1588): 3820 ± 642 unit/l

CC#CCC(C)[C@H](O)/C=C/[C@@H]1[C@H]2c3cccc(CCCC(=O)O)c3O[C@H]2C[C@H]1O (relative stereo) [beraprost, (±)-(1R*,2R*, 3aS*,8bS*)-2,3,3a,8b-tetrahydro-2-hydroxy-1-[(E)-(3S*)-3-hydroxy-4methyl-1-ocetene-6-inyl]-1H-cyclopenta[b]benzofuran-5-butyric acid]
pathological symptoms (rats): slight to medium congestion in lung, slight to medium bleeding in stomach glands and slight small intestine catarrh | side effects (rats): side effects are observed only at very high dose | LD50 at 336 h ([5]; iv, female): 13 mg/kg | LD50 at 336 h ([5]; iv, male): 18 mg/kg | LD50 at 336 h ([5]; po, female): 12 mg/kg | LD50 at 336 h ([5]; po, male): 15 mg/kg | LD50 at 336 h ([5]; sc, subcutaneous, female): 7 mg/kg | LD50 at 336 h ([5]; sc, subcutaneous, male): 13 mg/kg | decrease in GOT (in words) [1, 8]: significant decrease | decrease in GPT (in words) [1, 8]: significant decrease | decrease in lipid peroxide level in the blood (in words) [1, 8]: significant decrease | decrease in amount of triglycerides in the liver (in words) [2, 9]: significant decreases | decrease in serum GOT (in words) [2, 9]: significant decreases | decrease in serum GPT (in words) [2, 9]: significant decreases

From patent US5475026A, “Agent for treating hepatic diseases” (Toray Industries, Inc., priority 1991, dated 1995)
